Activity calls are given as the source filed them. No cut-off for these calls is given here.
Assays:
[1] = Therapeutic index, ratio of EC50 for human BJ cells to EC50 for mouse B-ALL cells expressing wild type BCR-ABL; type: toxicity; settings: human BJ cells versus mouse B-ALL cells expressing wild type BCR-ABL; read-out: Ratio EC50
KOPN-8 [2] = assay: Antiproliferative activity against human KOPN8 assessed as reduction in cell viability after 72 hrs by CellTiter-Glo assay; type: functional, cell-based; settings: KOPN-8, 72 h
B-ALL [3] = assay: Antiproliferative activity against mouse B-ALL BCR-ABL double knockout cells assessed as reduction in cell viability after 72 hrs by CellTiter-Glo assay; type: functional, cell-based
BJ = assay: Antiproliferative activity against human BJ assessed as cell viability after 72 hrs by CellTiter-Glo assay; type: functional, cell-based
UoC-B1 = assay: Antiproliferative activity against human UOCB1 assessed as reduction in cell viability after 72 hrs by CellTiter-Glo assay; type: functional, cell-based; settings: UoC-B1, 72 h
NALM-6 = assay: Antiproliferative activity against human NALM6 assessed as reduction in cell viability after 72 hrs by CellTiter-Glo assay; type: functional, cell-based; settings: NALM-6, 72 h
B-ALL [4] = assay: Antiproliferative activity against mouse B-ALL cells expressing wild type BCR-ABL assessed as reduction in cell viability after 72 hrs by CellTiter-Glo assay; type: functional, cell-based
SUP-B15 [5] = assay: Antiproliferative activity against human SUP-B15 assessed as reduction in cell viability after 72 hrs by CellTiter-Glo assay; type: functional, cell-based; settings: SUP-B15, 72 h
[6] = Protein binding in mouse plasma; type: ADME, cell-free; settings: read-out: PPB (converted)
[7] = Permeability of compound at pH 7.4 by PAMPA; type: ADME; settings: read-out: Peff
SUP-B15 [8] = assay: Induction of apoptosis in human SUP-B15 cells assessed as late apoptotic cells level after 24 hrs by Annexin V and propidium iodide staining based flow cytometry (reference value: 13.5%); type: functional
[9] = Half life in mouse plasma; type: ADME, cell-free
KOPN-8 [10] = assay: Induction of apoptosis in human KOPN8 cells assessed as late apoptotic cells level after 24 hrs by Annexin V and propidium iodide staining based flow cytometry (reference value: 96.4%); type: functional
SUP-B15 [11] = assay: Induction of apoptosis in human SUP-B15 cells assessed as decrease in cell viability at […] after 24 hrs by ApoTox-Glo triplex assay; type: functional, cell-based
[12] = Permeability of compound at pH 7.4 assessed as drug retention by PAMPA; type: ADME
SUP-B15 [13] = assay: Cytotoxicity in human SUP-B15 cells assessed as decrease in cell viability after 24 hrs by bis-AAF-RF110 dye based assay; type: functional
KOPN-8 [14] = assay: Cell cycle arrest in human KOPN8 cells assessed as increase in accumulation of cells at S phase at 5 uM after 24 hrs by propidium iodide staining-based flow cytometric analysis; type: functional
[15] = Apparent permeability of compound form apical to basolateral side in human Caco2 cells; type: ADME, cell-based; settings: Caco-2
K562 = assay: Antiproliferative activity against human K562 assessed as reduction in cell viability after 72 hrs by CellTiter-Glo assay; type: functional, cell-based; settings: K562, 72 h
[16] = Apparent permeability of compound form basolateral to apical side in human Caco2 cells; type: ADME, cell-based; settings: Caco-2
[17] = Intrinsic clearance in human microsomes; type: ADME, Microsome
[18] = Intrinsic clearance in mouse microsomes; type: ADME, Microsome
MDA-MB-231 [19] = assay: Cytotoxicity against human MDA-MB-231 cells up to 30 uM after 24 hrs by propidium iodide staining-based fluorescence assay; type: functional, cell-based
MDA-MB-231 [20] = assay: Cytotoxicity against human MDA-MB-231 cells at 30 uM after 24 hrs by propidium iodide staining-based fluorescence assay; type: functional, cell-based
[21] = Half life in mouse microsomes; type: ADME, Microsome
SUP-B15 [22] = assay: Induction of apoptosis in human SUP-B15 cells assessed as late apoptotic cells level after 24 hrs by Annexin V and propidium iodide staining based flow cytometry (reference value: 83%); type: functional
[23] = Efflux ratio of apparent permeability across basolateral to apical side over apical to basolateral side in human Caco2 cells; type: ADME, cell-based; settings: Caco-2
[24] = Protein binding in human plasma; type: ADME, cell-free; settings: read-out: PPB (converted)
[25] = Half life in human plasma; type: ADME, cell-free
SUP-B15 [26] = assay: Induction of apoptosis in human SUP-B15 cells assessed as decrease in cell viability at 5 uM after 24 hrs by Annexin V/propidium iodide staining-based flow cytometric analysis; type: functional
SUM149PT = assay: Cytotoxicity against human SUM149 cells at 1 uM after 24 hrs by propidium iodide staining-based fluorescence assay relative to control; type: functional, cell-based
KOPN-8 [27] = assay: Induction of apoptosis in human KOPN8 cells assessed as decrease in cell viability at 5 uM after 24 hrs by Annexin V/propidium iodide staining-based flow cytometric analysis; type: functional
SUP-B15 [28] = assay: Induction of apoptosis in human SUP-B15 cells assessed as increase in caspase 3/7 activity after 24 hrs by caspase-Glo 3/7 reagent based luminescence assay; type: functional, cell-based
[29] = Half life in human microsomes; type: ADME, Microsome
B-ALL [30] = assay: Induction of apoptosis in mouse B-ALL BCR-ABL double knockout cells assessed as increase in caspase 3/7 activity after 24 hrs by caspase-Glo 3/7 reagent based luminescence assay; type: functional, cell-based
MV4-11 = assay: Antiproliferative activity against human MV411 assessed as reduction in cell viability after 72 hrs by CellTiter-Glo assay; type: functional, cell-based; settings: MV4-11, 72 h
KOPN-8 [31] = assay: Induction of apoptosis in human KOPN8 cells assessed as late apoptotic cells level after 24 hrs by Annexin V and propidium iodide staining based flow cytometry (reference value: 2%); type: functional
KOPN-8 [32] = assay: Cell cycle arrest in human KOPN8 cells assessed as reduction in accumulation of cells at G1/G0 phase at 5 uM after 24 hrs by propidium iodide staining-based flow cytometric analysis; type: functional
[33] = Half life in simulated gastric fluid; type: ADME

With COc1cc(-c2cc3ccccc3[nH]2)[nH]c1/C=C1\N=C(C)C=C1C as the compound, how does the selectivity ratio [1] read?
The selectivity ratio was 7.

And the EC50 (KOPN-8 [2])?
Its EC50 is 14.7 µM.

What about the EC50 (B-ALL [3]) of the same compound?
Its EC50 is 12.5 µM.

What about the EC50 (BJ) of the same compound?
Its EC50 is 8.71 µM.

And the EC50 (UoC-B1)?
Its EC50 is 1.49 to 1.5 µM.

What about the EC50 (NALM-6) of the same compound?
The EC50 was 1.07 µM.

What about the EC50 (B-ALL [4]) of the same compound?
Its EC50 is 1.24 µM.

And the EC50 (SUP-B15 [5])?
Its EC50 is 25.9 µM.

What does the source list for O=C(Cc1ccccc1)Nc1ccc(-c2nc3cc(NC(=O)Cc4ccccc4)ccc3[nH]2)cc1?
fraction unbound [6]: 0.002; Papp [7]: 204 ×10⁻⁶ cm/s; Activity (SUP-B15 [8]): 18.6%; selectivity ratio [1]: 13; half-life [9]: > 48 h; Activity (KOPN-8 [10]): 80.1%; EC50 (KOPN-8 [2]): 0.18 µM; Activity (SUP-B15 [11]): Active; permeability [12]: 74.6%; Activity (SUP-B15 [13]): Active; Activity (KOPN-8 [14]): Active; Papp A→B [15]: 0.206 ×10⁻⁶ cm/s; EC50 (B-ALL [3]): 0.784 µM; EC50 (K562): > 10 µM; Papp B→A [16]: 4.13 ×10⁻⁶ cm/s; CLint scaled [17]: 5.85 mL/min/kg; EC50 (BJ): 8.35 µM; CLint scaled [18]: 10.5 mL/min/kg; EC50 (UoC-B1): > 43.3 µM; Activity (MDA-MB-231 [19]): inactive; Activity (MDA-MB-231 [20]): Active; half-life [21]: 5.44 h; Activity (SUP-B15 [22]): 24.2%; efflux ratio [23]: 20.1; fraction unbound [24]: 0.003; half-life [25]: > 48 h; EC50 (NALM-6): 4.24 µM; Activity (SUP-B15 [26]): Active; Activity (SUM149PT): Active; EC50 (B-ALL [4]): 0.635 µM; Activity (KOPN-8 [27]): Active; Activity (SUP-B15 [28]): Active; EC50 (SUP-B15 [5]): 0.27 µM; half-life [29]: 3.56 h; Activity (B-ALL [30]): inactive; EC50 (MV4-11): 0.716 µM; Activity (KOPN-8 [31]): 18.5%; Activity (KOPN-8 [32]): Active; half-life [33]: > 48 h

With CNC(=C[N+](=O)[O-])NCCSCc1ccc(CN(C)C)o1 [RANITIDINE] as the compound, how does the permeability [12] read?
Its permeability is 0%.

Which selectivity ratio [1] does the source give for COc1ccc(-c2[nH]nc(C)c2-c2ccc(OC)c(O)c2)c(O)c1 here?
The selectivity ratio was over 5.

What about the EC50 (KOPN-8 [2]) of the same compound?
Its EC50 is 34.6 µM.

And the EC50 (B-ALL [3])?
Its EC50 is 28.9 µM.

And the EC50 (BJ)?
The EC50 was over 43.3 µM.

And the EC50 (UoC-B1)?
Its EC50 is 6.1 µM.

What about the EC50 (NALM-6) of the same compound?
The EC50 was over 21.6 µM.

And the EC50 (B-ALL [4])?
Its EC50 is 8.53 µM.

What about the EC50 (SUP-B15 [5]) of the same compound?
Its EC50 is over 43.3 µM.

With COc1ccc(O)c(-c2cc(-c3ccc(Cl)cc3)[nH]n2)c1 as the compound, how does the selectivity ratio [1] read?
The selectivity ratio was over 5.

What about the EC50 (KOPN-8 [2]) of the same compound?
Its EC50 is 1.4 µM.

And the EC50 (B-ALL [3])?
The EC50 was 27.8 µM.

And the EC50 (BJ)?
The EC50 was over 43.3 µM.

What about the EC50 (UoC-B1) of the same compound?
The EC50 was 10.6 µM.

And the EC50 (NALM-6)?
The EC50 was over 21.6 µM.

What about the EC50 (B-ALL [4]) of the same compound?
The EC50 was 8.04 µM.

And the EC50 (SUP-B15 [5])?
The EC50 was 5.23 µM.

And the EC50 (MV4-11)?
Its EC50 is 0.65 µM.

What does the source list for CCCSc1ccc2nc(NC(=O)OC)[nH]c2c1 [ALBENDAZOLE]?
Papp [7]: 284 ×10⁻⁶ cm/s; permeability [12]: 44.1%

Which results are given for O=C(c1cc(-c2csc(-c3ccc(O)cc3)n2)c[nH]1)N1CCCC1?
selectivity ratio [1]: > 11; EC50 (KOPN-8 [2]): > 43.3 µM; EC50 (B-ALL [3]): > 43.3 µM; EC50 (BJ): > 43.3 µM; EC50 (UoC-B1): > 43.3 µM; EC50 (NALM-6): > 43.3 µM; EC50 (B-ALL [4]): 3.98 µM; EC50 (SUP-B15 [5]): > 43.3 µM

Which half-life [33] does the source give for O=C(O)CCCc1ccc(N(CCCl)CCCl)cc1 [CHLORAMBUCIL] here?
Its half-life is 15.3 h.

For COc1ccc(O)c(C(=O)NCCc2ccc(-c3cnc(C)s3)cc2)c1, which EC50 (KOPN-8 [2]) is on record?
Its EC50 is 36.3 µM.

What about the EC50 (B-ALL [3]) of the same compound?
The EC50 was 22.7 µM.

And the EC50 (BJ)?
Its EC50 is 8.25 µM.

And the EC50 (UoC-B1)?
The EC50 was 24.7 µM.

And the EC50 (NALM-6)?
Its EC50 is 1.01 µM.

And the EC50 (B-ALL [4])?
The EC50 was 9.49 µM.

And the EC50 (SUP-B15 [5])?
Its EC50 is over 43.3 µM.

What about the EC50 (MV4-11) of the same compound?
The EC50 was over 10 µM.

From ChEMBL document CHEMBL4422630, “Identification of substituted 5-membered heterocyclic compounds as potential anti-leukemic agents” (Eur J Med Chem, 2019)
